One assay concerns PBMC. Put plainly: Surface phenotype of T-cells from PBMC cultures stimulated with HER-2 peptide. The settings on record: nine days after first stimulation, expansion in IL-2. It counts as cell-based, human. The procedure:
FIG. 7A. Surface phenotype of T-cells from PBMC cultures stimulated with HER-2 peptide D97. Fresh isolated PBMC from healthy volunteers were induced in vitro with HER-2 peptides. T-cell surface phenotypes were determined after one (1) and two (2) stimulations with the same peptide. Immunofluorescence analysis was performed as described in the Materials and methods. Symbols indicate (o—o) CD3^+ cells, (▪—▪) CD8^+ cells, and (□—□) CD4^+ cells.
(§1) mAbs to CD3 (OKT3-FITC), CD4 (OKT4-FITC) and CD8 (OKT8-FITC) were obtained from Ortho Diagnostic (Ortho, Raritan, N.J.), mAb W6/32 (anti-HLA, -A, -B, -C) from Dako (Dako-Dakopatts, Denmark); HLA-A2 reacting mAb BB7.2 and MA2.1 from ATCC. Immunofluorescence studies were performed as described in Example 1.
To address the question of whether in vitro stimulation of PBMC with HER-2 peptides followed by culture in the presence of IL-2 leads to T-cell phenotype change, the % CD3, CD4, and CD8 expression on the surface of HER-2 peptide-stimulated PBMC were determined. The results of a typical study are shown in FIG. 7A, FIG. 7B and FIG. 7C. […] This trend continued in all cultures and 10-15 days after a third stimulation, with the same peptide in all cultures, CD4^+ cells constituted the dominant (>80%) cell population.

For a further assay, the system named is HLA-A2+ PBMC. Put plainly: Proliferation assay (3H-thymidine incorporation, stimulation index). It is filed as cell-based, human. The conditions noted are these: Donor 20; peptide 50 μg/ml, 5 days. The method, then:
Fresh PBMC from healthy volunteers isolated by Ficoll-Hypaque™ were distributed into 96-well round-bottomed plates (Falcon, Becton-Dickinson) at 2×10^5/well in RPMI-FCS. Peptides were added at 50 μg/ml. The studies were performed at least twice using PBMC from the same donor, in quadruplicate. After 5 days, for the last 16 h in culture, wells were pulsed with 1 μCi of [^3H]-thymidine (^3H-Tdr) and counted. Proliferation was determined as ^3H-Tdr incorporation and c.p.m. determined in the samples of PBMC cultured with peptides and were divided by c.p.m. determined same cultures in the absence of peptides, to determine the stimulation index (S.I.).
HER-2 peptides (Table 6) were tested for their ability to stimulate HLA-A2^+ PBMC to proliferate in vitro. PBMC from healthy donors were incubated with HER-2 peptides from the groups:41-56, 392-410 and 968-984 for 5 days. With few exceptions, significant cell proliferation was not observed in all 4 PBMC samples from individual donors of different HLA-types including HLA-A2. […] The exception to these observations was Donor 20.S.I. for D95 was 6.4, for D121 was 4.3, but for the nonamer D119 was only 1.1. Similarly, the S.I. for the longer peptide D96 (41-54) was 2.8 but for the shorter peptide D97 was only 1.5. These differences were statistically significant.
Background: Uptake of a labelled nucleoside into DNA is a usual measure of proliferation.

For a further assay, the system named is C1R:A2 cells. The assay is described as follows: In vitro induction of peptide-reactive CTL from PBMC, 51Cr release on peptide-pulsed C1R:A2. It counts as cell-based, human.
A further assay has as its target T1, HLA-A2 of T2 cells (Homo sapiens, UniProt P04439, D140Y/D185E/D98H/E176V/E277Q/G131W/G231S/I119V/I121R/I166T/I218V/L300P/L318F/N151K/N90K/P208A/P217A/Q86G/Q94H/R138H/R169H/T345S).
T1 construct: cell surface expression of HLA-A2 is lower (30-40%) than in normal LBL lines transfected with HLA-A2; endogenous in cells; host or cells: T2 (transport deletion mutant) human lymphoblastoid cells, obtained from Dr. Peter Creswell
The assay is described as follows: Reactivity of MA2.1 mAb with T2 cells after culture with peptide (immunofluorescence, FL1). It counts as cell-based. The settings on record: peptide 50 μg/ml, overnight culture in IMDM-FCS. The procedure:
FIG. 5A. Effects of HER-2 peptides on reactivity of MA2.1 mAb with T2 cells. Fluorescence analysis and determination of FL1 were performed as described (Stauss et al., 1992). Peptides were added to T2 cells at 50 μg/ml (final concentration). After overnight culture, in IMDM-FCS, cells were washed and the levels of HLA-A2 expression were determined using HLA-A2 specific mAb.
as §1
To determine whether these peptides and longer analogs affect HLA-A2 conformation as an indication of HLA-A2 binding, the effects of HER-2 peptides on the reactivity of conformationally dependent mAb MA2.1 and BB.7.2 were examined with HLA-A2 of T2 cells. The human cell line T2 has a defect affecting endogenous peptide loading of MHC class I molecules. As a consequence, cell surface expression of HLA-A2 is lower (30-40%) than in normal LBL lines transfected with HLA-A2 (e.g., C1R) but the reactivity of MA2.1 and BB.7.2 mAb is increased when certain HLA-A2 binding peptides are added to the culture medium (Anderson et al., 1993). Although most human MHC class I molecules cannot be induced at the low temperatures used for their murine counterparts because of fundamental structural differences between human and mouse class I (Anderson et al., 1993), the fact that they express few endogenous (mainly signal) peptides (Zweerink et al., 1993) increases the sensitivity of detection of peptide-HLA-A2 interaction.

For a further assay, the system named is C84 reactive CTL. The assay is described as follows: Recognition by C84 reactive CTL. It is filed as cell-based, human. An excerpt:
The analogs with sequences C91=[…], (SEQ ID NO:4) and C92=[…] (SEQ ID NO:3) are also compositions of the present invention. In addition, substitutions at P4 (S→K) and P6 (F→V) affect residues that are expected to interact with TCR. […] Both C81 and C82 can form the core for antagonists of HER-2 reactive CTLs (to control and stop CTL reactions), and as such represent the first “universal” antagonists reported for stimulating CTLs.

The target in assay [1] is T2, HLA-A2 on indicator T2 cells (Homo sapiens, UniProt P04439, D140Y/D185E/D98H/E176V/E277Q/G131W/G231S/I119V/I121R/I166T/I218V/L300P/L318F/N151K/N90K/P208A/P217A/Q86G/Q94H/R138H/R169H/T345S).
T2 construct: cell surface expression of HLA-A2 is lower (30-40%) than in normal LBL lines transfected with HLA-A2; endogenous in cells; host or cells: T2 (transport deletion mutant) human lymphoblastoid cells, obtained from Dr. Peter Creswell
Put plainly: Stabilization of HLA-A2 expression on indicator line T2. It is filed as cell-based. From the text:
Since HER-2 is a self-antigen, during thymic selection, a number of T-cells carrying receptors with high affinity for the HLA-peptide complex are silenced either by elimination ro tolerization. A pre-condition for induction of a high affinity TCR-(MHC+peptide) interactions, is a stable (MHC+peptide) complex. […] However, stabilization of HLA-Class I binding by exogenously added peptide is dependent on introduction of dominant anchors in positions P2 and P9 which are not recognized by TCR.
Peptide D113, […] (SEQ ID NO:17), is the natural nonapeptide […].

As to “LQPEQLQVFETLEEITGYLY [Peptide D121, HER-2:392-411, 20-mer]”, the “change in CD8+ cells” value in the assay on PBMC is given as “significant increase in CD8^+ cells”. For the same sequence, the “stimulation index (S.I.)” value with HLA-A2+ PBMC worked out at 4.3. For the same sequence, the “Ag specificity of CTL response induced by the peptide” value with C1R:A2 cells (PBMC stimulated with the peptide) was “lacked Ag specificity”. Besides, in the assay with C1R:A2 cells (donor 20), the “lysis of peptide-pulsed targets by PBMC stimulated with the peptide” value is listed as “somewhat higher lysis of targets pulsed with the nonapeptide D119 than D121”. Further, the “FL1 of T2 cells stained with MA2.1 mAb” value in the assay with HLA-A2 of T2 cells is on record as “failed to significantly affect the FL1”.
As for “ELVKEVSKV [Peptide C82, C85 analog with P4 (S→K) and P6 (F→V) substitutions]”, in the assay on C84 reactive CTL, the “recognition by C84 reactive CTL” value is recorded as “no longer recognized by C84 reactive CTL”. For the same sequence, the HLA-A2 binding entry in assay [1] is “binds HLA-A2”.

Values taken from patent US6514942B1, “Methods and compositions for stimulating T-lymphocytes” (The Board of Regents, The University of Texas System, priority 1995, dated 2003).
